The text below walks through data of patent US20210137941A1 (ZARODEX THERAPEUTICS LIMITED, priority 2018, published 2021).

The test system of series [1] is bone marrow B cell subsets. The series is described as follows: Wild type mouse study: bone marrow B cell immunophenotyping by flow cytometry. It is filed as in vivo, C57BL/6 mice. To be noted: 1 mg/kg IP, 21 days. On the technique in general: Flow cytometry measures light scatter and fluorescence of single cells or particles in a stream.
For series [2], the system named is splenic B cell and T cell populations. The series is described as follows: Wild type mouse study: spleen immunophenotyping by flow cytometry. It counts as in vivo, C57BL/6 mice.
In series [3] the test system is circulating immunoglobulins. Description: Wild type mouse study: circulating immunoglobulin profile by ELISA. It is filed as in vivo, C57BL/6 mice. To be noted: clozapine 5 and 10 mg/kg, haloperidol 1 mg/kg, IP 21 days; FIG. 24. (In general: ELISA stands for enzyme-linked immunosorbent assay.)
For series [4] the following is noted: no clear dose-dependent relationship; not significant beyond 30 days; cited from earlier work.
The test system of another series is IgE. To be noted: cited from earlier work.
The target in another series is T1, CD20 (Homo sapiens, UniProt P11836).
T1 construct: host or cells: patients' own B cells
T1 sequence (P11836 1-297): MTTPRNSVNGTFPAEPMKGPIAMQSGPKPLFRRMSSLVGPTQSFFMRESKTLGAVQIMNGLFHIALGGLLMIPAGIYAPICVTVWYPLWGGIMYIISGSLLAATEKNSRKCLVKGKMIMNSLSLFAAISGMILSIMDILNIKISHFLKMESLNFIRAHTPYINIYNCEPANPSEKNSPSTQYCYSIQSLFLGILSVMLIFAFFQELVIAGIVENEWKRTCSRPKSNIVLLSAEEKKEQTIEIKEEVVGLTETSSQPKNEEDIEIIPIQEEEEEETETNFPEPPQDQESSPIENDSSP
To be noted: cited from earlier work.

IgE, sequence (P01854 1-425 limits assumed): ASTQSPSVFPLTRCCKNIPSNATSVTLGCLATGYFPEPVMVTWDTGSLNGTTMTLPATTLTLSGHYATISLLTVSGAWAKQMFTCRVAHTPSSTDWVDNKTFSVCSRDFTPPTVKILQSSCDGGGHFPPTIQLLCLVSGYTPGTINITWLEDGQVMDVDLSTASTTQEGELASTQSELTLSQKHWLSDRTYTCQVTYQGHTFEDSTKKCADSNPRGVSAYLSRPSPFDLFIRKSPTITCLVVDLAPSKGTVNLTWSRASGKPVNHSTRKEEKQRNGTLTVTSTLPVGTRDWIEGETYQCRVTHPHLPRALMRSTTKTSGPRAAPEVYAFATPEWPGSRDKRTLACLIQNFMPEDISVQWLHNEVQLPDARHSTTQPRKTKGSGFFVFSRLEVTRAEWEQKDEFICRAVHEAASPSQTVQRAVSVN

Regarding `O=C(CCCN1CCC(O)(c2ccc(Cl)cc2)CC1)c1ccc(F)cc1` [haloperidol], in series [1] (FIG. 18), the “early developing B cell subsets in bone marrow (overall B, pre-pro B, pro-B)” value is “no significant effect”. Also, the “effect on long-lived plasma cells in the bone marrow” value in series [1] (FIG. 20) is “no effect”. Also, the “activated T cells (B220+TCR-beta+) in spleen vs control” value in series [2] (clozapine 2.5-10 mg/kg, haloperidol 1 mg/kg, IP 21 days, FIG. 21) is given as “modestly apparent”. Further, in series [2] (comparator, 1 mg/kg IP, 21 days), the “impact on B cell subpopulations” value is given as “not observed”. Moreover, the “circulating IgA levels compared to control” value in series [3] was “not observed”.

For the compound `Cc1cc2c(s1)Nc1ccccc1N=C2N1CCN(C)CC1` [olanzapine], the “risk of pneumonia requiring hospitalization” value (“risk” for short) in series [4] is “modestly increased risk”.

Take `OCCOCCN1CCN(C2=Nc3ccccc3Sc3ccccc32)CC1` [quetiapine]: the “risk” value in series [4] is “modestly increased risk”.

Regarding `Cc1nc2n(c(=O)c1CCN1CCC(c3noc4cc(F)ccc34)CC1)CCCC2` [risperidone], the “risk” value in series [4] is “modestly increased risk”.

Take “omalizumab: humanised monoclonal anti-IgE antibody”: the “treatment of refractory chronic spontaneous urticaria” value with IgE (2 phase II and 4 phase III trials (Chang et al., 2015)) is “efficacious and safe”. The “clinical efficacy in allergic rhinitis” value in the series on IgE (Holgate et al., 2005, Tsabouri et al., 2014) is given as “clinically effective”. Further, the “effect in refractory/relapsing Churg-Strauss syndrome” value in the series with IgE (Jachiet et al., 2016) is on record as “corticosteroid-sparing effect”. For the same compound, the “efficacy in atopic individuals with coexisting eye disease” value in the series on IgE (Kopp et al., 2009) is “has shown efficacy”. Moreover, the “burden of asthma symptoms” value in the series on IgE (inner city children and young adults (Busse et al., 2011)) is reported as “significant reduction”. In addition, in the series with IgE (pilot study (Loizou et al., 2015)), the “clinical outcome in eosinophilic oesophagitis” value is listed as “clinical improvement in a proportion of patients”.

As for “rituximab: anti-CD-20 antibody used for B cell depletion”, the “clinical outcome in Churg-Strauss syndrome” value with CD20 (Mohammad et al., 2016) is “clinically effective in inducing remission or partial responses”. In the series with CD20 (Simon et al., 2008), the “clinical outcome in atopic dermatitis” value is recorded as “substantial clinical improvement” and the “reduction of B cells in the skin, atopic dermatitis” value was approximately 50%. Besides, the “effect on IgE levels” value with CD20 (van Vollenhoven et al., 2013) is recorded as “modest”.
